Assays:
[1] = molecular target: Calcium/calmodulin-dependent protein kinase type 1D (Homo sapiens) (UniProt Q8IU85); assay: CAMK1D ProQinase selectivity panel; details: Compound concentration 1.0 uM
[2] = molecular target: Mitogen-activated protein kinase kinase kinase kinase 2 (Homo sapiens) (UniProt Q12851); assay: MAP4K2 ProQinase selectivity panel; details: Compound concentration 1.0 uM
[3] = molecular target: Serine/threonine-protein kinase PLK4 (Homo sapiens) (UniProt O00444); assay: SAK ProQinase selectivity panel; details: Compound concentration 1.0 uM
[4] = molecular target: Ephrin type-B receptor 2 (Homo sapiens) (UniProt P29323); assay: EPHB2 ProQinase selectivity panel; details: Compound concentration 1.0 uM
[5] = molecular target: T1, Sigma intracellular receptor 2 (Homo sapiens, UniProt Q5BJF2); assay: GPCRScan assay: inhibition of Sigma 2; parameters: radioligand conc. used [nm] 5.0, parental cells HEKT
[6] = molecular target: Tyrosine-protein kinase receptor UFO (Homo sapiens) (UniProt P30530); assay: AXL ProQinase selectivity panel; details: Compound concentration 1.0 uM
[7] = molecular target: Mitogen-activated protein kinase 14 (Homo sapiens) (UniProt Q16539); assay: p38-alpha ProQinase selectivity panel; details: Compound concentration 1.0 uM
[8] = molecular target: Serine/threonine-protein kinase MARK1 (Homo sapiens) (UniProt Q9P0L2); assay: MARK1 ProQinase selectivity panel; details: Compound concentration 1.0 uM
[9] = molecular target: Mitogen-activated protein kinase 11 (Homo sapiens, UniProt Q15759); assay: p38-beta ProQinase selectivity panel; details: Compound concentration 1.0 uM
[10] = system: Epidermal growth factor receptor (Homo sapiens), P00533 [UNDEFINED MUTATION]; assay: EGF-R d747-749/A750P ProQinase selectivity panel; details: Compound concentration 1.0 uM
[11] = molecular target: Calcium/calmodulin-dependent protein kinase type II subunit delta (Homo sapiens) (UniProt Q13557); assay: CAMK2D ProQinase selectivity panel; details: Compound concentration 1.0 uM
[12] = molecular target: Ribosomal protein S6 kinase alpha-6 (Homo sapiens) (UniProt Q9UK32); assay: RPS6KA6 ProQinase selectivity panel; details: Compound concentration 1.0 uM
[13] = molecular target: CDK6/cyclin D1 (Homo sapiens) (UniProt P24385+Q00534); assay: CDK6/CycD1 ProQinase selectivity panel; type: protein-complex assay; details: Compound concentration 1.0 uM
[14] = system: Hepatocyte growth factor receptor (Homo sapiens), P08581 [D1228H]; assay: MET D1228H ProQinase selectivity panel; details: Compound concentration 1.0 uM
[15] = molecular target: NUAK family SNF1-like kinase 1 (Homo sapiens) (UniProt O60285); assay: ARK5 ProQinase selectivity panel; details: Compound concentration 1.0 uM
[16] = molecular target: 5-hydroxytryptamine receptor 2B (Homo sapiens, UniProt P41595); assay: GPCRScan assay: inhibition of 5-HT2B; parameters: radioligand conc. used [nm] 1.0 – 2.0, parental cells stable HEK
[17] = molecular target: Mitogen-activated protein kinase kinase kinase 7 (Homo sapiens) (UniProt O43318); assay: MAP3K7/MAP3K7IP1 ProQinase selectivity panel; details: Compound concentration 1.0 uM
[18] = molecular target: Serine/threonine-protein kinase Sgk3 (Homo sapiens) (UniProt Q96BR1); assay: SGK3 ProQinase selectivity panel; details: Compound concentration 1.0 uM
[19] = molecular target: MAP kinase-activated protein kinase 5 (Homo sapiens) (UniProt Q8IW41); assay: MAPKAPK5 ProQinase selectivity panel; details: Compound concentration 1.0 uM
[20] = system: Tyrosine-protein kinase ABL1 (Homo sapiens), P00519 [T315I]; assay: ABL1 T315I ProQinase selectivity panel; details: Compound concentration 1.0 uM
[21] = molecular target: Serine/threonine-protein kinase Nek3 (Homo sapiens) (UniProt P51956); assay: NEK3 ProQinase selectivity panel; details: Compound concentration 1.0 uM
[22] = molecular target: Platelet-derived growth factor receptor beta (Homo sapiens) (UniProt P09619); assay: PDGFR-beta ProQinase selectivity panel; details: Compound concentration 1.0 uM
[23] = molecular target: Misshapen-like kinase 1 (Homo sapiens) (UniProt Q8N4C8); assay: MINK1 ProQinase selectivity panel; details: Compound concentration 1.0 uM
[24] = molecular target: ALK tyrosine kinase receptor (Homo sapiens) (UniProt Q9UM73); assay: ALK ProQinase selectivity panel; details: Compound concentration 1.0 uM
[25] = molecular target: Proto-oncogene tyrosine-protein kinase ROS (Homo sapiens) (UniProt P08922); assay: ROS ProQinase selectivity panel; details: Compound concentration 1.0 uM
[26] = molecular target: Receptor tyrosine-protein kinase erbB-4 (Homo sapiens) (UniProt Q15303); assay: ERBB4 ProQinase selectivity panel; details: Compound concentration 1.0 uM
[27] = molecular target: Activin receptor type-1 (Homo sapiens) (UniProt Q04771); assay: ACV-R1 ProQinase selectivity panel; details: Compound concentration 1.0 uM
[28] = system: Hepatocyte growth factor receptor (Homo sapiens), P08581 [Y1230H]; assay: MET Y1230H ProQinase selectivity panel; details: Compound concentration 1.0 uM
[29] = system: Epidermal growth factor receptor (Homo sapiens), P00533 [UNDEFINED MUTATION]; assay: EGF-R d752-759 ProQinase selectivity panel; details: Compound concentration 1.0 uM
[30] = molecular target: Ribosomal protein S6 kinase beta-2 (Homo sapiens) (UniProt Q9UBS0); assay: S6K-beta ProQinase selectivity panel; details: Compound concentration 1.0 uM
[31] = molecular target: 3-phosphoinositide-dependent protein kinase 1 (Homo sapiens) (UniProt O15530); assay: PDK1 ProQinase selectivity panel; details: Compound concentration 1.0 uM
[32] = molecular target: Protein kinase C theta type (Homo sapiens) (UniProt Q04759); assay: PKC-theta ProQinase selectivity panel; details: Compound concentration 1.0 uM
[33] = molecular target: T1, Sigma intracellular receptor 2; details: Compound concentration 10.0 uM
[34] = molecular target: Protein-tyrosine kinase 6 (Homo sapiens) (UniProt Q13882); assay: BRK ProQinase selectivity panel; details: Compound concentration 1.0 uM
[35] = system: Hepatocyte growth factor receptor (Homo sapiens), P08581 [Y1235D]; assay: MET Y1235D ProQinase selectivity panel; details: Compound concentration 1.0 uM
[36] = molecular target: Hepatocyte growth factor receptor (Homo sapiens) (UniProt P08581); assay: MET wt ProQinase selectivity panel; details: Compound concentration 1.0 uM
[37] = molecular target: cGMP-dependent protein kinase 1 (Homo sapiens) (UniProt Q13976); assay: PRKG1 ProQinase selectivity panel; details: Compound concentration 1.0 uM
[38] = system: Hepatocyte growth factor receptor (Homo sapiens), P08581 [D1228N]; assay: MET D1228N ProQinase selectivity panel; details: Compound concentration 1.0 uM
[39] = molecular target: Sodium-dependent serotonin transporter (Homo sapiens) (UniProt P31645); details: Compound concentration 10.0 uM
[40] = molecular target: Glycogen synthase kinase-3 beta (Homo sapiens) (UniProt P49841); assay: GSK3-beta ProQinase selectivity panel; details: Compound concentration 1.0 uM
[41] = molecular target: Serine/threonine-protein kinase 3 (Homo sapiens) (UniProt Q13188); assay: MST2 ProQinase selectivity panel; details: Compound concentration 1.0 uM
[42] = molecular target: Activated CDC42 kinase 1 (Homo sapiens) (UniProt Q07912); assay: ACK1 ProQinase selectivity panel; details: Compound concentration 1.0 uM
[43] = molecular target: SRSF protein kinase 3 (Homo sapiens) (UniProt Q9UPE1); assay: STK23 ProQinase selectivity panel; details: Compound concentration 1.0 uM
[44] = molecular target: Protein kinase C zeta type (Homo sapiens) (UniProt Q05513); assay: PKC-zeta ProQinase selectivity panel; details: Compound concentration 1.0 uM
[45] = molecular target: Serine/threonine-protein kinase NLK (Homo sapiens) (UniProt Q9UBE8); assay: NLK ProQinase selectivity panel; details: Compound concentration 1.0 uM
[46] = molecular target: Tyrosine-protein kinase Tec (Homo sapiens) (UniProt P42680); assay: TEC ProQinase selectivity panel; details: Compound concentration 1.0 uM
[47] = molecular target: Serine/threonine-protein kinase Nek11 (Homo sapiens) (UniProt Q8NG66); assay: NEK11 ProQinase selectivity panel; details: Compound concentration 1.0 uM
[48] = molecular target: 5-hydroxytryptamine receptor 2C (Homo sapiens) (UniProt P28335); details: Compound concentration 10.0 uM
[49] = molecular target: 5'-AMP-activated protein kinase catalytic subunit alpha-1 (Homo sapiens) (UniProt Q13131); assay: AMPK-alpha1 ProQinase selectivity panel; details: Compound concentration 1.0 uM

T1 sequence (Q5BJF2 whole entry): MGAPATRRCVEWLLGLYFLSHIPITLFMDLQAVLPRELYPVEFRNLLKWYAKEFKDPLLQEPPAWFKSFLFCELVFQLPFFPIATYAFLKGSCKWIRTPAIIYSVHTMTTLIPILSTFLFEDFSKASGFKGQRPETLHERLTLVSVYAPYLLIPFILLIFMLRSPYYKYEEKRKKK
Chain of 5-hydroxytryptamine receptor 2B (P41595 whole entry): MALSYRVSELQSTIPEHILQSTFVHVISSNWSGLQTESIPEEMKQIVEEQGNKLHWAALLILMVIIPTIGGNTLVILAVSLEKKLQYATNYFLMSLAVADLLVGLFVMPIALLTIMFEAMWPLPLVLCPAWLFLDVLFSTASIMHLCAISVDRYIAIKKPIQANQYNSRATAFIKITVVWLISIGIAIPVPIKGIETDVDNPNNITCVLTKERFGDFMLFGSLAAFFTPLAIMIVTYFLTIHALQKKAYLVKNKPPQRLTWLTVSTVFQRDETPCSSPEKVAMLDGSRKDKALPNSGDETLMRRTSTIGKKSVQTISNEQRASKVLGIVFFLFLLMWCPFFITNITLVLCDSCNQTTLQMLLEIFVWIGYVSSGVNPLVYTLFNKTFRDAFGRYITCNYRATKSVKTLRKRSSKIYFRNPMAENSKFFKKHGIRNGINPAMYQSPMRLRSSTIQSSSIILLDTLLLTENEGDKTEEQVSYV
Chain of Epidermal growth factor receptor (Homo sapiens), P00533 [UNDEFINED MUTATION] (P00533 whole entry, looked up, stated change not applied): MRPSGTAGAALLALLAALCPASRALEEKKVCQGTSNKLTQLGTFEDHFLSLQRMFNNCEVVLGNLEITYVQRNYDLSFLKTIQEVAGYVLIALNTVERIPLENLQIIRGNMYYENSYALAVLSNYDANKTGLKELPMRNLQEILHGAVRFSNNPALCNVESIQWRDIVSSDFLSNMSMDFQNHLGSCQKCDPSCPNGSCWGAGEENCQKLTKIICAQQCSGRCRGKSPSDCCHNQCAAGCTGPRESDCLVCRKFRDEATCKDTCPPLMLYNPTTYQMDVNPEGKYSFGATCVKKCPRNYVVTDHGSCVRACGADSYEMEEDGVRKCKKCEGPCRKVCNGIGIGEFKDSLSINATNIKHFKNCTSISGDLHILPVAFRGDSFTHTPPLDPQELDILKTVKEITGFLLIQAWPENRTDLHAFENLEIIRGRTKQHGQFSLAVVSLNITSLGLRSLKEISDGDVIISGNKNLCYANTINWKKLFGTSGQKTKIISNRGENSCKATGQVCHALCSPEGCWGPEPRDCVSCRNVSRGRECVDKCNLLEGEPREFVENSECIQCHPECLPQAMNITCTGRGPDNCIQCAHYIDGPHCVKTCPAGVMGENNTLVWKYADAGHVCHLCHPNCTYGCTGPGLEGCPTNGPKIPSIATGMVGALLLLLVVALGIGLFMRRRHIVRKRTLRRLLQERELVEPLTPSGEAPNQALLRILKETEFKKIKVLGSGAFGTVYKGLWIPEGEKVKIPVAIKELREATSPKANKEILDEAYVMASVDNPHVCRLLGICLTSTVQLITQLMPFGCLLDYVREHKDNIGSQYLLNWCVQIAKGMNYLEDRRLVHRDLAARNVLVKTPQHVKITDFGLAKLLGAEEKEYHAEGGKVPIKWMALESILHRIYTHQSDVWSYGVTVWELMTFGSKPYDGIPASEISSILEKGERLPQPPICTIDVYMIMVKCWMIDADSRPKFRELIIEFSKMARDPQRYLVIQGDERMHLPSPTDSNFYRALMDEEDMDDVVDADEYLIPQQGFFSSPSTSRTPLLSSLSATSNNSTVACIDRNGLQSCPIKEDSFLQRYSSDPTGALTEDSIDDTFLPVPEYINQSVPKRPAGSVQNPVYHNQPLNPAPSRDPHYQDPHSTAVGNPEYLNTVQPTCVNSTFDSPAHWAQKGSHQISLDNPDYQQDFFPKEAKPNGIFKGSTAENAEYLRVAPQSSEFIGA
Chain of Glycogen synthase kinase-3 beta (Homo sapiens) (P49841 whole entry, looked up): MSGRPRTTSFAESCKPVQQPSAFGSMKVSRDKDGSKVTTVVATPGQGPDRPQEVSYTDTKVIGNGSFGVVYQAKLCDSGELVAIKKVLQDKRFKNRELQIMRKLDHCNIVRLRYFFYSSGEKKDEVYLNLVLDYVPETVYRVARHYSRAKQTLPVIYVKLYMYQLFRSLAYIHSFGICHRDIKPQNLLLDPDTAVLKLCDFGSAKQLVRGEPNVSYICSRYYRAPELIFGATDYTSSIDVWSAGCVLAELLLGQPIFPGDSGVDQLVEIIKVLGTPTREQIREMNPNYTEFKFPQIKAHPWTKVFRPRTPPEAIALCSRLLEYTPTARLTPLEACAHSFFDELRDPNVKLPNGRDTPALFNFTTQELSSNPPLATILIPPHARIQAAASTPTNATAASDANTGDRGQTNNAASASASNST
Chain of Hepatocyte growth factor receptor (Homo sapiens), P08581 [Y1235D] (P08581 whole entry Y1235D): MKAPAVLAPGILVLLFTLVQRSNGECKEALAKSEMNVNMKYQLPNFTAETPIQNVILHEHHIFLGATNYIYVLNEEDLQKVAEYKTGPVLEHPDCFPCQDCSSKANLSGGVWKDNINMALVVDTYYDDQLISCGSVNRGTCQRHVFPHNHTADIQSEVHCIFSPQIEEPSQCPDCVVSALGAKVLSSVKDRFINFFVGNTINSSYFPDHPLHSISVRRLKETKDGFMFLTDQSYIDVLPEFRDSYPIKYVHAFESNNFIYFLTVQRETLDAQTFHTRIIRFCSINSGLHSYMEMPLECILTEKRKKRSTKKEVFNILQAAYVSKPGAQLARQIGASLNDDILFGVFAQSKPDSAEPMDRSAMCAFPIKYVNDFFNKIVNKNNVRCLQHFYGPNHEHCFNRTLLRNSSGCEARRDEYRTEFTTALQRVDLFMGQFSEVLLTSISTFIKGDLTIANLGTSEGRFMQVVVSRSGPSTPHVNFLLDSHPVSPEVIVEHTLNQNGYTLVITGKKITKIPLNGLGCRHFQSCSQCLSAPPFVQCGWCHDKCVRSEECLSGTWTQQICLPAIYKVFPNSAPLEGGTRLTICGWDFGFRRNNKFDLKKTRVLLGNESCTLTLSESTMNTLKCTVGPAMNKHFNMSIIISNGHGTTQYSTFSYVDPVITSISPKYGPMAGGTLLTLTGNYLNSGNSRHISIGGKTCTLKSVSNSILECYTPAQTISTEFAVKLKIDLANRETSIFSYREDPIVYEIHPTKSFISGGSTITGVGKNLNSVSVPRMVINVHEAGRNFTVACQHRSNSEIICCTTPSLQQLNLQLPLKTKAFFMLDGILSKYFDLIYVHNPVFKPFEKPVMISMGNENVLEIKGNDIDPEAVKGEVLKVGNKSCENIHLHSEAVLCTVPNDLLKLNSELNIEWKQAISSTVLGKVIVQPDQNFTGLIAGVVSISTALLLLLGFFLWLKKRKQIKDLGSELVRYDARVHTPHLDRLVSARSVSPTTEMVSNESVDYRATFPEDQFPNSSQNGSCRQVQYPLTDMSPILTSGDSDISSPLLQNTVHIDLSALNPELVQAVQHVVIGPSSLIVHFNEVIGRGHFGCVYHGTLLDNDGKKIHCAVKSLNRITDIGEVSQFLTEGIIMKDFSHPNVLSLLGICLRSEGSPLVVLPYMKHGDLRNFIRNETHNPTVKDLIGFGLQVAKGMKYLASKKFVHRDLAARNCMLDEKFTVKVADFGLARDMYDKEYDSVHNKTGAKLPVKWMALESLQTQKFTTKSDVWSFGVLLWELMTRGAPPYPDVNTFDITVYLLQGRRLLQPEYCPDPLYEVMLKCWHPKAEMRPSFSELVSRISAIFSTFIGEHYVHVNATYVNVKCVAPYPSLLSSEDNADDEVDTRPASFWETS
Chain of Hepatocyte growth factor receptor (Homo sapiens), P08581 [D1228N] (P08581 whole entry D1228N): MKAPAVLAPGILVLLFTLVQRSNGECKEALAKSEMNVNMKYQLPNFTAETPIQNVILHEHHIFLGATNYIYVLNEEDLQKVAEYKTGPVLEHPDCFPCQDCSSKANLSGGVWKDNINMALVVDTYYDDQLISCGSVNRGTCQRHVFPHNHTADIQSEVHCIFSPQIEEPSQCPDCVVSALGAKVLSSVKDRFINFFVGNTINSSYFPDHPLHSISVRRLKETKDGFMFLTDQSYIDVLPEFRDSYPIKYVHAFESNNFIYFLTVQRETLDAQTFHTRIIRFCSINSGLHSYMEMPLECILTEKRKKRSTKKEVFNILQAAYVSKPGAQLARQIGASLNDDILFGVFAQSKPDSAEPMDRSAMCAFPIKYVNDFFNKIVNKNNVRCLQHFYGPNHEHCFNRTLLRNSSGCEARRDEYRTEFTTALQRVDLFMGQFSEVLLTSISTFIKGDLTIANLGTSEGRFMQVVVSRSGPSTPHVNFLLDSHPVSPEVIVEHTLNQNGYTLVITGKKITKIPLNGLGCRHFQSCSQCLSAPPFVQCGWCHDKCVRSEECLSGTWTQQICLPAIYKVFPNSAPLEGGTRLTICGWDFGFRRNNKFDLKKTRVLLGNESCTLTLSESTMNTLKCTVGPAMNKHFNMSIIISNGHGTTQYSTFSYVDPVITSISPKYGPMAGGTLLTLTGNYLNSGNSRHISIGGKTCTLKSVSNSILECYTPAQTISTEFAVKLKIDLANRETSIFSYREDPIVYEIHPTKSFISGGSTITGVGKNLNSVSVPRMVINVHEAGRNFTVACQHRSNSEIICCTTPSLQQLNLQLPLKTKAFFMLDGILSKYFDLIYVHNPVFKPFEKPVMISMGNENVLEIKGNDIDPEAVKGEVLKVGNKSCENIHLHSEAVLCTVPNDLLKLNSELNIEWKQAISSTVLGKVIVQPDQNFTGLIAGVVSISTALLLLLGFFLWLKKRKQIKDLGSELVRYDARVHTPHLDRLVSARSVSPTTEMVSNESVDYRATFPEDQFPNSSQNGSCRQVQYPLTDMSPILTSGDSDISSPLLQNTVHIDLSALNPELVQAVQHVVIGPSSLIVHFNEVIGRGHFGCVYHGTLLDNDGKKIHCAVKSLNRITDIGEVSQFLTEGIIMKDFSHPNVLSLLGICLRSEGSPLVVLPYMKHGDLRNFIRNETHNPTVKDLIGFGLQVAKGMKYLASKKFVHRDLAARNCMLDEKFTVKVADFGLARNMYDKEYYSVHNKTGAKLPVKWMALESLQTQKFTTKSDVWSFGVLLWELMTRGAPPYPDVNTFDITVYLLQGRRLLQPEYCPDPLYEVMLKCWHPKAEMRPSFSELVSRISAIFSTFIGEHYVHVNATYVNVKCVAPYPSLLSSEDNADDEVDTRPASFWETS

% Residual activity with Skepinone-L [1]: 106%
% Residual activity with Skepinone-L [2]: 89%
% Residual activity with Skepinone-L [3]: 62%
% Residual activity with Skepinone-L [4]: 91%
Ki ([5]; read-out: Ki): 3.36 µM
Ki ([5]; read-out: pKi (converted)): 3.24 µM
% Residual activity with Skepinone-L [6]: 100%
% Residual activity with Skepinone-L [7]: 0%
% Residual activity with Skepinone-L [8]: 88%
% Residual activity with Skepinone-L [9]: 3%
% Residual activity with Skepinone-L [10]: 96%
% Residual activity with Skepinone-L [11]: 43%
% Residual activity with Skepinone-L [12]: 85%
% Residual activity with Skepinone-L [13]: 88%
% Residual activity with Skepinone-L [14]: 97%
% Residual activity with Skepinone-L [15]: 115%
Ki ([16]; read-out: Ki): 172 nM
Ki ([16]; read-out: pKi (converted)): 166 nM
% Residual activity with Skepinone-L [17]: 80%
% Residual activity with Skepinone-L [18]: 102%
% Residual activity with Skepinone-L [19]: 97%
% Residual activity with Skepinone-L [20]: 93%
% Residual activity with Skepinone-L [21]: 85%
% Residual activity with Skepinone-L [22]: 96%
% Residual activity with Skepinone-L [23]: 94%
% Residual activity with Skepinone-L [24]: 104%
% Residual activity with Skepinone-L [25]: 102%
% Residual activity with Skepinone-L [26]: 106%
% Residual activity with Skepinone-L [27]: 94%
% Residual activity with Skepinone-L [28]: 102%
% Residual activity with Skepinone-L [29]: 83%
% Residual activity with Skepinone-L [30]: 89%
% Residual activity with Skepinone-L [31]: 97%
% Residual activity with Skepinone-L [32]: 99%
inhibition [33]: 53.1%
% Residual activity with Skepinone-L [34]: 84%
% Residual activity with Skepinone-L [35]: 114%
% Residual activity with Skepinone-L [36]: 108%
% Residual activity with Skepinone-L [37]: 110%
% Residual activity with Skepinone-L [38]: 95%
inhibition [39]: 20.7%
% Residual activity with Skepinone-L [40]: 97%
% Residual activity with Skepinone-L [41]: 83%
% Residual activity with Skepinone-L [42]: 108%
% Residual activity with Skepinone-L [43]: 96%
% Residual activity with Skepinone-L [44]: 109%
% Residual activity with Skepinone-L [45]: 87%
% Residual activity with Skepinone-L [46]: 115%
% Residual activity with Skepinone-L [47]: 113%
inhibition [48]: 24%
% Residual activity with Skepinone-L [49]: 84%
Structure (SMILES): O=C1c2ccc(Nc3ccc(F)cc3F)cc2CCc2ccc(OC[C@H](O)CO)cc21 [Skepinone-L]
